{"source": "ChEMBL document CHEMBL3804823", "about": "“Inhibitors of secreted phospholipase A2 suppress the release of PGE2 in renal mesangial cells” (Bioorg Med Chem, 2016)", "type_in_all_cases": "cell-based", "key": {"[1]": {"species": "Rattus norvegicus", "test": "Inhibition of secretory phospholipase A2 in rat renal mesangial cells assessed as suppression of IL-1beta/forskolin stimulated PGE2 formation preincubated for 20 mins prior to IL-1beta/forskolin challenge at 1 to 10 uM measured after 24 hrs by PGE2-specific ELISA"}, "[2]": {"species": "Rattus norvegicus", "test": "Inhibition of secretory phospholipase A2 in rat renal mesangial cells assessed as suppression of IL-1beta/forskolin stimulated PGE2 formation preincubated for 20 mins prior to IL-1beta/forskolin challenge at 1 uM measured after 24 hrs by PGE2-specific ELISA"}, "[3]": {"species": "Rattus norvegicus", "test": "Inhibition of secretory phospholipase A2 in rat renal mesangial cells assessed as suppression of IL-1beta/forskolin stimulated PGE2 formation preincubated for 20 mins prior to IL-1beta/forskolin challenge at 3 and 10 uM measured after 24 hrs by PGE2-specific ELISA"}, "[4]": {"species": "Rattus norvegicus", "test": "Inhibition of secretory phospholipase A2 in rat renal mesangial cells assessed as suppression of IL-1beta/forskolin stimulated PGE2 formation preincubated for 20 mins prior to IL-1beta/forskolin challenge at 10 uM measured after 24 hrs by PGE2-specific ELISA"}}, "note": "Active and inactive are the calls of the source. No cut-off for these calls is given here."}
{"compound": "CCCCCCCCCCCCCCCCC(=O)C(=O)N[C@H](C(=O)O)C(C)C", "values": [{"measurement": "inhibition", "setting": "[1]", "result": "Active"}]}
{"compound": "CC(C)[C@H](NC(=O)C(=O)CCCCc1ccccc1)C(=O)O", "values": [{"measurement": "inhibition", "setting": "[1]", "result": "Active"}]}
{"compound": "CCCC[C@H](CCC(=O)O)NC(=O)CCCCNC(=O)c1ccccc1", "values": [{"measurement": "inhibition", "setting": "[2]", "result": "inactive"}, {"measurement": "inhibition", "setting": "[3]", "result": "Active"}]}
{"compound": "CCCCCCCCCCCCCCC(=O)C(=O)NCCCC(=O)OCC", "values": [{"measurement": "inhibition", "setting": "[4]", "result": "inactive"}]}
{"compound": "CC(C)[C@H](NC(=O)C(=O)c1ccc2ccccc2c1)C(=O)O", "values": [{"measurement": "inhibition", "setting": "[2]", "result": "inactive"}, {"measurement": "inhibition", "setting": "[3]", "result": "Active"}]}
{"compound": "CC(C)[C@H](NC(=O)C(=O)CCCCc1ccc2ccccc2c1)C(=O)O", "values": [{"measurement": "inhibition", "setting": "[1]", "result": "Active"}]}
{"compound": "CCCC[C@H](CCC(=O)O)NC(=O)CCCCCCc1ccccc1", "values": [{"measurement": "inhibition", "setting": "[1]", "result": "Active"}]}
{"compound": "CCCC[C@H](CCC(=O)O)NC(=O)CCCCNC(=O)c1ccc(OC)cc1", "values": [{"measurement": "inhibition", "setting": "[1]", "result": "Active"}]}
{"compound": "CCCC[C@H](CCC(=O)O)NC(=O)CCCC(=O)NCc1ccccc1", "values": [{"measurement": "inhibition", "setting": "[1]", "result": "Active"}]}
{"compound": "CCCC[C@H](CCC(=O)O)NC(=O)CCCCCOc1ccccc1", "values": [{"measurement": "inhibition", "setting": "[2]", "result": "inactive"}, {"measurement": "inhibition", "setting": "[3]", "result": "Active"}]}
{"compound": "CCCCCCCCCCCCCCC(=O)C(=O)N[C@@H](CC(C)C)C(=O)O", "values": [{"measurement": "inhibition", "setting": "[1]", "result": "Active"}]}
{"compound": "O=C(O)CC[C@@H](Cc1ccc(OCc2ccccc2)cc1)NC(=O)CCCCCCc1ccccc1", "values": [{"measurement": "inhibition", "setting": "[1]", "result": "Active"}]}
{"compound": "O=C(CCCCc1ccccc1)C(F)(F)C(F)(F)F", "values": [{"measurement": "inhibition", "setting": "[4]", "result": "inactive"}]}
{"compound": "CCCCCCCCCCCCCCC(=O)C(=O)N[C@@H](CCCC)CCCC(=O)O", "values": [{"measurement": "inhibition", "setting": "[4]", "result": "inactive"}]}
{"compound": "CCCC[C@H](CCC(=O)O)NC(=O)CCCCC(=O)Nc1ccccc1", "values": [{"measurement": "inhibition", "setting": "[2]", "result": "inactive"}, {"measurement": "inhibition", "setting": "[3]", "result": "Active"}]}
